Measured values from patent US6069156A, “Indole derivatives as cGMP-PDE inhibitors” (Fujisawa Pharmaceutical Co., Ltd., priority 1995, dated 2000).

How the values were obtained:
corpora cavernosa = experiment: Effect on the Relaxation Elicited by Electrical Field Stimulation in rat Corpora Cavernosa; details: compound at 10^-7 M
Protocol: (b) Effect of Test Compound on the Relaxation Elicited by Electrical Field Stimulation in rat Corpora Cavernosa.
The rat erectile tissue strip prepared according to the method described by Italiano et al. (Pharmacological Research, 30, No4, 1994) was placed 25 ml organ bath containing Krebs-Ringer solution. The bath was maintained at 37° C. and bubbled with 95% O2 and 5% CO2. The solution also contained atropine (1 μM) and guanethidine (50 μM). The erectile tissue strip was stretched with a resting force of 0.25 g, and isometric contraction were recorded via force development transducer on a recorder. The bipolar platinum electrode connected to the electric stimulator was placed around the strip.
The strip was equilibrated in the Krebs-Ringer solution for about 60 minutes and preconstructed by 0.1 mM norepinephrine to ascertain the responsibility of each preparation. The strip was washed several times, and then constricted by 0.1 mM norepinephrine. After getting stable contractile response to norepinephrine, the first electrical field stimulation (1 to 45 Hz, 20V, 0.5 msec duration, 90 sec interval) was delivered. 30 minutes after adding the tested compound, the second electrical field stimulation was delivered.

[1] = tested on: blood flow of corpus spongiosum penis and corpus cavernosum penis; experiment: Impotence Model (c): penile blood flow in anesthetized beagle; format: in vivo, Male beagle
Protocol: (c) Male beagle weighing 8.0-12.0 kg were anesthetized with pentobarbital sodium (35 mg/kg, i.v.). After tracheotomy, the animal was artificially ventilated using a volume-cycled ventilator. The femoral artery was cannulated for continuous blood pressure and heart rate monitoring. The femoral vein was cannulated for maintenance of anesthesia and administration of tested compound. Two laser-dopper probes were placed in the corpus spongiosum penis and corpus cavernosum penis for recording blood flow. After a period of stabilization of all parameters, tested compound was injected intravenously at a various concentration. […] The increase in blood flow reached a peak value of 55% of baseline and continued for longer than 15 minutes after the administration of said compound 1.0 mg/kg.

SMILES: CCCc1c(C(=O)C(C)C)c2ccc(C(N)=O)cc2n1Cc1ccccc1Cl [Example 6, 1-(2-chlorobenzyl)-3-isobutyryl-2-propylindole-6-carboxamide]
- relaxation of corpora cavernosa elicited by electrical field stimulation (corpora cavernosa): potentiated relaxation of corpora cavernosa elicited by electrical field stimulation
- Relaxant response elicited by 30 Hz (corpora cavernosa; control 14.3%): 17.1%
- duration of increase in blood flow ([1]; 1.0 mg/kg intravenous): > 15 min
- peak value of increase in blood flow (of baseline) ([1]; 1.0 mg/kg intravenous): 55%
- blood flow of corpus spongiosum penis and corpus cavernosum penis ([1]; intravenous): increased in the blood flow of both corpus spongiosum penis and corpus cavernosum penis
- hemodynamic change ([1]; intravenous): without hemodynamic change
